Measured values reported in patent US9549909B2, “Method for the treatment of dravet syndrome” (KATHOLIEKE UNIVERSITEIT LEUVEN, priority 2013, dated 2017).

Legend:
[1] = test system: seizures in Dravet Syndrome patients; assay: Long-term fenfluramine and valproate treatment of Dravet Syndrome patients (Ceulemans et al. data); assay type: in vivo, human
Source text: The following table provides results based on the data presented in Ceulemans et al., Epilepsia (2012) 53(7):1131-1139.

[2] = test system: heart valve; assay: Echocardiography monitoring for heart valve defects in subjects treated with fenfluramine; assay type: in vivo, human
Source text: The subjects treated with fenfluramine were monitored using echocardiography for possible heart valve defects.

[3] = test system: self-induced photosensitive seizures; details: cited from earlier work
[4] = test system: refractory epilepsy; details: children with refractory epilepsy; dose of 0.5 to 1 mg/kg/day; cited from earlier work
[5] = test system: seizures in Dravet Syndrome patients; details: Combined STICLO-France and Italy; stiripentol and either valproate or clobazam; two months; cited from earlier work
[6] = fenfluramine and valproate, average daily dose 0.34 mg/kg/day for between 1 and 22 years, 0.34 mg/kg/day

SMILES | Types of seizures reduced ([1]; Dravet Syndrome patients, not only photosensitive or self-induced seizures) | >50% Reduction in Seizures (responders) [1, 6] [%] | Seizure-free Patients [1, 6] [%] | Heart valve defects by echocardiography [2] | Response of self-induced photosensitive seizures ([3]; four cases, Aicardi and Gastaut) | Effect on pattern sensitivity-induced seizures resistant to anticonvulsive treatment ([3]; one child, Clemens 1988) | Effect on number of seizures [4] | Responders - >50% Reduction in the Number of Seizures [5] [%] | Seizure Free Patients [5] [%]
CCNC(C)Cc1cccc(C(F)(F)F)c1 (stereo not drawn) [Fenfluramine, 3-trifluoromethyl-N-ethylamphetamine] | effectively reduced the incidence of all types of seizures | 75 | 66.6 | No clinically relevant defects were identified | responded to treatment | successfully terminated these self-induced seizures | reduction in the number of seizures | – | –
CC(C)(C)C(O)/C=C/c1ccc2c(c1)OCO2 (stereo not drawn) [Stiripentol] | – | – | – | – | – | – | – | 69.7 | 38.7
